Assay: Human HepG2 cell viability assay in 384 well format
Assay type: toxicity, cell-based
Design: dose 125 nL, time 70.5 hour; concentration not given beside the values
Conditions: HepG2 cells, read-out: Inhibition

Compound	cytotoxicity at 70.5 h [%]
Cc1ccc(C)n1-c1ccsc1C(=O)NCC(=O)N1CCCC1	-1.31
COc1cccc(C(=O)N2C[C@@H](C(=O)O)[C@H](c3ccccc3C)C2)c1	6.74
O=C(O)c1cc(-c2ccn(CC3CC3)n2)n2ccccc12	-1.77
COCC(=O)NCc1cc(=O)n2c(n1)CN(Cc1ccsc1)CCC2	-12.5
COc1ccc(-n2cc(CNC(=O)c3cscn3)nn2)cc1	-17.7
Cn1cc(N2C(=O)CC[C@@H]3[C@H]2CCN3CC2CCOCC2)cn1	-14.3
Cc1cc(C(F)(F)F)cc(N2CCN(Cc3ccccc3)CC(O)C2)n1 (stereo unspecified)	3.5
c1ncn(CC2CN(CC3CCCC3)CCO2)n1 (stereo unspecified)	0.357
CN(C)CC1(O)CCN(C(=O)Cc2ccc3ccccc3c2)C1 (stereo unspecified)	-1.7
CNC(=O)CN1CCOCC12CCN(C(=O)c1ccccc1)CC2	-5.33
Cc1c(CN2CCc3nc4sccc4c(=O)n3CC2)cnn1C	-6.65
O=C(Cn1ccc2ccccc21)Nc1cc(N2CCCC2)ncn1	3.21
CN(C)C(=O)c1ccc(C2CCCNC2)nc1 (stereo unspecified)	-6.57
CN1CCN(Cc2cnc3n2CCN(C(=O)c2ccncc2)C3)CC1	-10.3
Cc1cccc(I)c1C(=O)NCc1ncc[nH]1	-10.8
COCCN(C)C(C(=O)O)c1ccc(Cl)c(F)c1 (stereo unspecified)	-5.39
Cc1nc2[nH]cnc(Nc3cnn(C)c3)c-2n1	0.28
CCN(CC(C)C#N)C(=O)CNc1cc(Cl)ccc1C(N)=O (stereo unspecified)	3.41
Cc1oc(-c2ccco2)nc1CC(=O)N1CCC(C(O)C(F)(F)F)CC1 (stereo unspecified)	-18.3
Cc1cnn(CC2CCCCN2C(=O)c2ccc3c(c2)nnn3C)c1 (stereo unspecified)	-1.73
COCC1CCN(C(=O)c2cc(-c3ccco3)nc3c(Cl)cccc23)C1 (stereo unspecified)	-20.7
CC1(Cc2ccc3c(c2)OCO3)CCCN(S(=O)(=O)N2CCCC2)C1 (stereo unspecified)	0.304
CC(Cn1cccn1)n1cnc2ccc(F)cc2c1=O (stereo unspecified)	-7.83
CC1CCN(c2ncc3c(n2)CN(c2ccccc2)C3=O)CC1	-9.08

Compound	cytotoxicity at 70.5 h [%]
CCn1ccc(-c2cc(C(=O)O)n3nc(C)c(Cl)c3n2)n1	-9.11
CN(Cc1cscn1)C1CCCN(Cc2noc(C3CC3)n2)C1 (stereo unspecified)	22.4
Cc1ccc(-c2noc(CCC3CCN(C)CC3)n2)nn1	-5.24
O=C(O)c1ccc(-c2cscn2)cc1	-6.68
Cc1ccc(-c2ccnc(NC(C)c3ncc[nH]3)n2)c(C)n1 (stereo unspecified)	-10.5
Cc1nc(CN(C)C2CCN(Cc3c(C)noc3C)C2)no1 (stereo unspecified)	-8.91
CCOc1ccc(CCCC(=O)N2CCC(C(=O)NC)C2)cc1C (stereo unspecified)	-8.84
CC(C)NC(=O)CCNC(=O)CCc1cc(Br)cs1	-6.47
Cc1cc(C)c(CNC(=O)NCc2cc(F)cc(F)c2)c(=O)[nH]1	-3.54
O=C(Cc1ccc(F)cc1)N1CCN(CC(O)C2CC2)CC1 (stereo unspecified)	-1.1
Cc1cnc(N2CCOC(C(=O)NCc3ccccc3)C2)s1 (stereo unspecified)	-15.2
O=C(Nc1ccc(-c2csnn2)cc1)N1CCCC1	-11.8
Cc1ccc(C(=O)NCCCNc2ccc(C(F)(F)F)cn2)cc1	-9.05
CCOC(CC)C(=O)NCc1ccnc(Oc2ccc(F)cc2)c1 (stereo unspecified)	-7.99
CCc1ncncc1C(=O)N1CCCN(Cc2ccc(C)cc2)CC1	20.1
CCNC(=O)[C@@H]1C[C@H](N)CN1C(=O)c1c[nH]c2ccccc12	-0.954
CCCc1nnc(N2CCC(N3CCCCCC3)CC2)o1	-15.8
CCC(C)Oc1ccc(CNCCc2c[nH]cn2)cc1Cl (stereo unspecified)	24.1
CCN(CC)S(=O)(=O)c1ccc2c(c1)N(Cc1ccncc1)C(=O)CS2	-3.41
c1ccc(CCN2CCCC2c2cncc(Nc3nncs3)n2)cc1 (stereo unspecified)	10.6
CN(CCCNC(=O)c1ccccc1F)CC(F)(F)F	-2.12
Cc1cccc(N2CCN(C(=O)Nc3cnn(CC(N)=O)c3)CC2)c1	-18.1
O=C(CN1CCCC1Cn1cncn1)Nc1cccnc1 (stereo unspecified)	-7.61
O=C1CCC2(CCN(Cc3cscn3)CC2)CN1[C@H]1CC[C@H](O)CC1	-13.1

Compound	cytotoxicity at 70.5 h [%]
Cn1c(CN2CCOC(CCc3ccncn3)C2)nc2ccccc21 (stereo unspecified)	-3.77
O=C(NCCn1ccc(-c2ccccn2)n1)C1CCC1	1.58
Cc1nc(CN2C(=O)CC[C@H]3[C@@H]2CCN3C(=O)c2ccsc2)cs1	-11.6
CCc1cc(NCCNC(C)=O)nc(N2CCCC2)n1	23.3
Cc1noc(C)c1CNC(=O)N1CCC(C(O)c2ccccc2)CC1 (stereo unspecified)	-6
CC(=O)N1CCc2nnc(C3CCCCN3CC3CC3)n2CC1 (stereo unspecified)	-13
CNc1nc(CNC(=O)Nc2cccc(CN(C)C)c2)cs1	0.614
Cc1nonc1CN(C)Cc1nc(-c2cccc(F)c2F)oc1C	-7.8
O=C(NC1COC2(CCN(CC3CCC3)CC2)C1)c1ccccn1 (stereo unspecified)	1.22
CCN(CC1CN(Cc2c(C)noc2C)CCO1)c1cccnn1 (stereo unspecified)	12.5
O=C(Cc1ccsc1)N1C[C@@H]2C[C@@H](c3nnc(C4CC4)o3)O[C@@H]2C1	4.61
COc1nc2c(cc1C(=O)NCCCc1nnc(N)s1)CCC2	-1.23
Cc1c[nH]c(CN(C)c2nc(C3CCCC3)nc3c2cnn3C)n1	-2.19
COc1ccccc1OCc1cc(C(=O)N2CC=CC2C(C)C)n[nH]1 (stereo unspecified)	-6.89
CC(CN1CCC2(CC1)c1nc[nH]c1CCN2S(C)(=O)=O)C(F)(F)F (stereo unspecified)	-1.86
CN(C)CC(=O)N1CCc2ncnc(-c3cncnc3)c2CC1	-3.5
Cc1ncccc1CNC1CCCN(Cc2noc(C3CC3)n2)C1 (stereo unspecified)	0.441
NC(=O)CC1CCN(CC(O)c2ccc(Br)cc2)CC1 (stereo unspecified)	-6.64
CC(CC#N)NC(=O)c1cc(Br)c2c(c1)OCCO2 (stereo unspecified)	0.544
COc1c(CNCc2ccccc2CN2CCOCC2)c(C)nn1C	-7.68
CC(C)(C)CC(=O)N1CCc2sccc2C1	-7.51
COc1cc(C)nc(N2CCN(C(=O)CCc3nccs3)CC2)n1	9.16
CCN1CC(COc2ccc(OC)cc2)Oc2ccncc2S1(=O)=O (stereo unspecified)	-0.442
CCc1nn(C)c(Cl)c1CN1CCN(c2nc(C(N)=O)cs2)CC1	-3.53

Compound	cytotoxicity at 70.5 h [%]
Cc1cc(C)c(CNC(=O)NCC(O)c2ccccc2)c(=O)[nH]1 (stereo unspecified)	-1.05
CN(Cc1ncnn1C)c1ccnc(Cc2ccccc2)n1	-2.06
Cc1nn(Cc2ccc(C(=O)NCCCN3CCCC3=O)o2)c(C)c1Cl	-10.6
CC(=O)c1ccc(-n2c(C)cn(CCC#N)c2=O)cc1	22.1
Cc1oncc1C(=O)N[C@@H]1CN(c2ncccn2)C[C@@H]2CCCO[C@@H]21	-10.7
Cn1cc(C2CCCN2CCCc2nc(-c3cccs3)no2)cn1 (stereo unspecified)	-11.4
N#CCC(=O)NCc1nnc2n1CCN(Cc1ccsc1)C2	9.84
Cn1cnnc1C1CCCN(C(=O)NCc2ccccn2)C1 (stereo unspecified)	15.7
COc1ncc(Cl)c(NCc2ccc([S+](C)[O-])cc2)n1 (stereo unspecified)	-0.908
CC(C)Cc1nc(CO)n(-c2ccc3c(c2)OCCO3)n1	1.83
Cn1cc(CN(Cc2cccc(-n3cccn3)c2)C2CC2)cn1	43.4
OCC1CCCN1c1cc(NCCc2nccs2)ncn1 (stereo unspecified)	0.047
CC(C)Cc1cc(C(=O)NCCc2nnc(N)s2)n(C)n1	-23.5
Cn1cc(C2CC3(CCN(C(=O)c4cccs4)CC3)NC2=O)cn1 (stereo unspecified)	1.02
Cn1cc(N2CC3(CCN(Cc4nccs4)CC3)OCC2=O)cn1	39.5
CC(CO)(NCc1noc(Cc2ccccc2)n1)C1CCCCC1 (stereo unspecified)	-0.885
O=c1cc(N2CCOCC2)cnn1CCc1ccc(F)cc1	-1.15
CC(CNC(=O)NCc1ccoc1)N1CCc2sccc2C1 (stereo unspecified)	6.45
Cn1cc(C2CC(=O)NC23CCN(C(=O)Cc2ccccn2)CC3)cn1 (stereo unspecified)	-5.18
O=C(NCCO)Nc1c(F)cccc1Oc1ccccc1	-7.66
CCS(=O)(=O)N1CCC(C(=O)NC(Cc2ccsc2)c2nccs2)CC1 (stereo unspecified)	18.9
O=C(O)C1CCCN(C(=O)CCn2ccc3c(Br)cccc32)C1 (stereo unspecified)	-12.2
COc1ccc(C(C)Nc2nc3c(C)nn(C)c3c(=O)n2C)cc1 (stereo unspecified)	-3.89
C=C(C)COc1cccc(CN(C)C(C)c2nccs2)c1 (stereo unspecified)	-4

Compound	cytotoxicity at 70.5 h [%]
Cc1cnccc1N1CCCN(C(=O)CCCS(N)(=O)=O)CC1	3.54
CS(=O)(=O)c1cnc(CC2CC2)nc1C1CCCNC1 (stereo unspecified)	19.7
CSc1nccc(N2CCN(C)C3(CCNC(=O)CC3)C2)n1 (stereo unspecified)	-5.4
Cc1nc(C2CCCN(C(=O)CN3CCCC3=O)C2)sc1C (stereo unspecified)	-15.5
CCN(CC)Cc1cn2c(n1)CN(Cc1c(C)noc1C)CC2	0.0103
CCC(Nc1cccc(OC)c1)C(=O)N(CCOC)Cc1cnn(C)c1 (stereo unspecified)	-1.31
CCn1cc(NC(=O)C2CCN(Cc3noc(C4CC4)n3)CC2)cn1	-8.03
CN1CCOC(CNC(=O)CCCOc2ccccc2F)C1 (stereo unspecified)	-15.3
O=C1CC(c2ccc3ccccc3n2)c2c(n[nH]c2C2CCC2)N1 (stereo unspecified)	19.5
CC1(C)CN(C(=O)Nc2ccc(Cn3cccn3)cc2)CCO1	-3.49
CCc1cc(NCCCOC2CCCC2)ncn1	-10.7
CC(=O)c1cccc(NC(=O)CN2CCCCC2C)c1 (stereo unspecified)	-2.56
CCN1CCN(C(=O)CCn2cccc2)CC1	-12.8
Cc1nc(CN2CCC3(CCCN(C(=O)c4cnccn4)C3)C2)cs1 (stereo unspecified)	-2.34
CC(NC(=O)N1CCC(n2cncn2)CC1)c1ccc(F)cc1 (stereo unspecified)	-6.99
CC(=O)NC1CCc2ccc(S(=O)(=O)NCc3ncccc3C)cc21 (stereo unspecified)	39.1
CC(C(=O)NCc1ccc(N2CCCCC2)nc1)S(C)(=O)=O (stereo unspecified)	-5.42
CC(C)N1C(=O)C2(CCN(C)CC2)c2cc(F)ccc21	-7.44
Cc1csc2ncc(-c3ccnc(N4CCN(C)CC4)n3)c(=O)n12	24.1
CCN(CC(=O)NC)S(=O)(=O)N1CCCCC1	-7.25
